These results are taken from PubChem BioAssay AID248 (DTP/NCI, 2004).

For this test, the system named is L1210 leukemia ip in BDF1 mice, survival T/C. The test can be described thus: NCI In Vivo Anticancer Drug Screen. Data for tumor model L1210 Leukemia (intraperitoneal) in B6D2F1 (BDF1) mice. To be noted: endpoint: mean survival time, higher = longer survival. In outline: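 Transplantable tumor model; survival measured in treated vs vehicle control mice. Value = treated/control.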

Where [1] appears, read: dose: 100.0 mg/kg/injection, schedule: Q01DX009 (ip), vehicle: Klucel (hydroxypropylcellulose) (HPC).
Where [2] appears, read: dose: 100.0 mg/kg/injection, schedule: Q04DX003 (ip), vehicle: Klucel (hydroxypropylcellulose) (HPC).
Where [3] appears, read: dose: 200.0 mg/kg/injection, schedule: Q01DX009 (ip), vehicle: Klucel (hydroxypropylcellulose) (HPC).
The mark [4] stands for this setting: dose: 200.0 mg/kg/injection, schedule: Q04DX003 (ip), vehicle: Klucel (hydroxypropylcellulose) (HPC).
Where [5] appears, read: dose: 400.0 mg/kg/injection, schedule: Q01DX009 (ip), vehicle: Klucel (hydroxypropylcellulose) (HPC).
Where [6] appears, read: dose: 400.0 mg/kg/injection, schedule: Q04DX003 (ip), vehicle: Klucel (hydroxypropylcellulose) (HPC).
The mark [7] stands for this setting: dose: 50.0 mg/kg/injection, schedule: Q01DX009 (ip), vehicle: saline with Tween-80.
Where [8] appears, read: dose: 100.0 mg/kg/injection, schedule: Q01DX009 (ip), vehicle: saline with Tween-80.
The mark [9] stands for this setting: dose: 100.0 mg/kg/injection, schedule: Q04DX003 (ip), vehicle: saline with Tween-80.
Where [10] appears, read: dose: 200.0 mg/kg/injection, schedule: Q01DX009 (ip), vehicle: saline with Tween-80.
Setting [11] is: dose: 200.0 mg/kg/injection, schedule: Q04DX003 (ip), vehicle: saline with Tween-80.
Where [12] appears, read: dose: 400.0 mg/kg/injection, schedule: Q01DX009 (ip), vehicle: saline with Tween-80.
[13] abbreviates: dose: 400.0 mg/kg/injection, schedule: Q04DX003 (ip), vehicle: saline with Tween-80.
[14] abbreviates: dose: 100.0 mg/kg/injection, schedule: Q01DX009 (ip), vehicle: saline.
Setting [15] is: dose: 200.0 mg/kg/injection, schedule: Q01DX009 (ip), vehicle: saline.
[16] abbreviates: dose: 100.0 mg/kg/injection, schedule: Q04DX003 (ip), vehicle: saline.
Setting [17] is: dose: 200.0 mg/kg/injection, schedule: Q04DX003 (ip), vehicle: saline.
The mark [18] stands for this setting: dose: 400.0 mg/kg/injection, schedule: Q04DX003 (ip), vehicle: saline.
The mark [19] stands for this setting: dose: 25.0 mg/kg/injection, schedule: Q04DX003 (ip), vehicle: Klucel (hydroxypropylcellulose) (HPC).
Where [20] appears, read: dose: 50.0 mg/kg/injection, schedule: Q04DX003 (ip), vehicle: Klucel (hydroxypropylcellulose) (HPC).

SMILES strings stand for the structures. Where “and” joins values, the source holds several entries; their conditions need not be identical. Identical values can stand only once. Inconclusive results and toxic doses are left out.

Take `C=CCOC(=O)Oc1ccccc1Cl`: the T/C is, setting by setting: under setting [1], 92 % of control; under setting [2], 95 % of control; under setting [3], 89 % of control; under setting [4], 97 % of control.
As to `COc1cc(C(=Nc2ccccc2)C(=Nc2ccccc2)c2cc(OC)c(OC)c(OC)c2)cc(OC)c1OC`, the T/C runs as follows: (dose: 25.0 mg/kg/injection, schedule: Q01DX009 (ip), vehicle: Klucel (hydroxypropylcellulose) (HPC)) 98 % of control; (dose: 50.0 mg/kg/injection, schedule: Q01DX009 (ip), vehicle: Klucel (hydroxypropylcellulose) (HPC)) 91 % of control; under setting [1], 90 % of control; under setting [2], 100 % of control; under setting [3], 95 % of control and 116 % of control; under setting [4], 97 % of control. The T/C by setting is: under setting [5], 120 % of control; under setting [6], 96 % of control.
With `O=C1C=CC2=Nc3ccccc3CCC2=C1`, the T/C by setting is: (dose: 75.0 mg/kg/injection, schedule: Q01DX001 (ip), vehicle: steriod suspending solution) 93 % of control; (dose: 150.0 mg/kg/injection, schedule: Q01DX001 (ip), vehicle: steriod suspending solution) 93 % of control; (dose: 300.0 mg/kg/injection, schedule: Q01DX001 (ip), vehicle: steriod suspending solution) 92 % of control.
Regarding `COc1ccc(C(=O)C(C)C=O)c(OCc2ccccc2)c1OC` (stereo unspecified), the T/C under setting [7] is 98 % of control; the T/C under setting [8] was 96 % of control; the T/C under setting [9] was 114 % of control; the T/C under setting [10] is 93 % of control; the T/C under setting [11] is 95 % of control; the T/C under setting [12] was 97 % of control. In addition, under setting [13], the T/C was 103 % of control.
Take `C[N+](C)(C)CN1C(=O)c2ccccc2C1=O`: the T/C is 101 % of control (dose: 50.0 mg/kg/injection, schedule: Q01DX009 (ip), vehicle: saline); 97 % of control under setting [14]; 88 % of control under setting [15].
For the compound `Cc1nccc(=O)[nH]1`, the T/C is 99 % of control under setting [14]; 106 % of control under setting [16]; 99 % of control under setting [15]; 106 % of control under setting [17]; 92 % of control under setting [18].
Consider `C[N+](C)(CCOc1ccccc1)Cc1cccs1`, for which the T/C runs as follows: (dose: 50.0 mg/kg/injection, schedule: Q01DX001 (ip), vehicle: saline) 109 % of control; (dose: 100.0 mg/kg/injection, schedule: Q01DX001 (ip), vehicle: saline) 97 % of control.
`Cc1ccc2c(c1)CC=CO2`: the T/C runs as follows: (dose: 50.0 mg/kg/injection, schedule: Q01DX009 (ip), vehicle: carboxymethylcellulose (CMC)) 91 % of control; (dose: 100.0 mg/kg/injection, schedule: Q01DX001 (ip), vehicle: carboxymethylcellulose (CMC)) 96 % of control; (dose: 100.0 mg/kg/injection, schedule: Q01DX009 (ip), vehicle: carboxymethylcellulose (CMC)) 94 % of control and 97 % of control; under setting [8], 88 % of control; under setting [9], 101 % of control; (dose: 200.0 mg/kg/injection, schedule: Q01DX001 (ip), vehicle: carboxymethylcellulose (CMC)) 96 % of control. Further, the T/C (dose: 200.0 mg/kg/injection, schedule: Q01DX009 (ip), vehicle: carboxymethylcellulose (CMC)) was 94 % of control and 95 % of control; the T/C under setting [11] was 97 % of control; the T/C (dose: 400.0 mg/kg/injection, schedule: Q01DX001 (ip), vehicle: carboxymethylcellulose (CMC)) is 100 % of control; the T/C (dose: 400.0 mg/kg/injection, schedule: Q01DX009 (ip), vehicle: carboxymethylcellulose (CMC)) is 96 % of control; the T/C under setting [12] is 92 % of control; the T/C under setting [13] was 98 % of control.
For the compound `CN=C(N)c1ccc(NC(=O)/C=C\c2ccc(/C=C/C(=O)Nc3ccc(C(N)=NC)cc3)cc2)cc1`, the T/C (dose: 15.0 mg/kg/injection, schedule: Q01DX Z (ip), vehicle: saline) was 121 % of control; the T/C (dose: 60.0 mg/kg/injection, schedule: Q01DX Z (oral), vehicle: saline) is 100 % of control; the T/C (dose: 120.0 mg/kg/injection, schedule: Q01DX Z (ip), vehicle: saline) is 179 % of control; the T/C (dose: 120.0 mg/kg/injection, schedule: Q01DX Z (oral), vehicle: saline) was 100 % of control; the T/C (dose: 240.0 mg/kg/injection, schedule: Q01DX Z (oral), vehicle: saline) was 101 % of control; the T/C (dose: 480.0 mg/kg/injection, schedule: Q01DX Z (oral), vehicle: saline) is 95 % of control.
Regarding `CC(C)Cc1ccccc1`, the T/C is 106 % of control under setting [1]; 110 % of control under setting [2]; 100 % of control under setting [3]; 96 % of control under setting [4]; 122 % of control under setting [5]; 96 % of control under setting [6].
As to `CNC(=N)c1ccc(NC(=N)c2ccc(NC(=N)c3ccc(NC(=O)Nc4ccc(C#N)cc4)cc3)cc2)cc1`, the T/C was 119 % of control (dose: 3.25 mg/kg/injection, schedule: Q01DX015 (ip), vehicle: water); 160 % of control (dose: 13.0 mg/kg/injection, schedule: Q01DX015 (ip), vehicle: water); 152 % of control (dose: 17.0 mg/kg/injection, schedule: Q01DX Z (ip), vehicle: water); 205 % of control (dose: 26.0 mg/kg/injection, schedule: Q01DX015 (ip), vehicle: water); 112 % of control (dose: 30.0 mg/kg/injection, schedule: Q01DX001 (ip), vehicle: water); 180 % of control (dose: 32.5 mg/kg/injection, schedule: Q01DX001 (ip), vehicle: water). Besides, the T/C is, setting by setting: (dose: 34.0 mg/kg/injection, schedule: Q01DX Z (ip), vehicle: water) 153 % of control; (dose: 50.0 mg/kg/injection, schedule: Q01DX001 (ip), vehicle: water) 151 % of control; (dose: 65.0 mg/kg/injection, schedule: Q01DX001 (ip), vehicle: water) 165 % of control and 210 % of control and 228 % of control; (dose: 97.0 mg/kg/injection, schedule: Q01DX001 (ip), vehicle: water) 232 % of control and 267 % of control.
Regarding `CC(C)(C)c1ccc(CC#N)cc1`, the T/C reads like this: under setting [19], 97 % of control; under setting [20], 94 % of control; under setting [2], 90 % of control.
Take `S=C(NNC(=S)Nc1ccc(Cl)cc1)NNc1ccccc1`: the T/C was 97 % of control (dose: 100.0 mg/kg/injection, schedule: Q04DX003 (ip), vehicle: acetone) and 100 % of control (dose: 200.0 mg/kg/injection, schedule: Q04DX003 (ip), vehicle: acetone).
For the compound `Nc1[nH]nc2nc(-c3ccc(Cl)cc3)cnc12`, the T/C under setting [7] was 104 % of control; the T/C under setting [8] was 101 % of control; the T/C under setting [9] was 95 % of control; the T/C under setting [10] is 98 % of control; the T/C under setting [11] was 95 % of control.
Consider `O=S(=O)(O)CCN(CCO)CCO`, for which the T/C was 98 % of control under setting [14]; 97 % of control under setting [16]; 101 % of control under setting [15]; 101 % of control under setting [17]; 109 % of control (dose: 400.0 mg/kg/injection, schedule: Q01DX009 (ip), vehicle: saline); 94 % of control under setting [18].
With `CCC(C)C(C#N)(CCN(C)C)Cc1cccc2ccccc12` (stereo unspecified), the T/C was 97 % of control under setting [19], 92 % of control under setting [20], 100 % of control under setting [1] and 103 % of control under setting [2].
With `O=[As](O)(c1cccc(Cl)c1)C1CCCCC1O` (stereo unspecified), the T/C is 91 % of control (dose: 25.0 mg/kg/injection, schedule: Q04DX003 (ip), vehicle: saline with Tween-80) and 89 % of control (dose: 50.0 mg/kg/injection, schedule: Q04DX003 (ip), vehicle: saline with Tween-80).
Regarding `CC(C)C1=CCC2C(=C1)CCC1C(C)(C(N)=O)CCCC21C` (stereo unspecified), the T/C is, setting by setting: under setting [8], 102 % of control; under setting [10], 92 % of control; under setting [12], 89 % of control.
